From patent US20190216815A1, “COMBINATION THERAPY COMPRISING A POLYUNSATURATED KETONE AND A FOLIC ACID PARTNER” (Avexxin AS, priority 2016, published 2019)

Assays:
Assay type in all cases: cell-based
[1] = tested on: LPS-induced production of TNF in PBMC; assay: LPS-induced TNF production in PBMC (ELISA); conditions: 1 μM MTX alone, 72 hours, 10 ng/mL LPS
Procedure: (§1) Blood was recruited from healthy donors at St. Olays Hospital HF, the Bloodbank. Peripheral blood mononuclear cells (PBMC) were isolated using SepMate™ separation tubes with LymphoPrep density gradient medium according to the STEMCELL Technology recommendations. For experiments, 1×10^6 cells/well/1 mL RPMI medium supplemented with 5% FBS, 0.3 mg/ml glutamine and 0.1 mg/ml gentamicin with or without inhibitors Compound A1, methotrexate hydrate (MTX) (Sigma-Aldrich, #A6770) or a combination of the two inhibitors, prior to the addition of lipopolysaccharides as a potent inducer of inflammation (LPS from E. coli 026:B6 γ-irradiated, Sigma-Aldrich, #L2654). Following treatment (72 hrs., 37° C., 5% CO2), the cell suspensions were centrifuged to isolate the supernatant from the cell fraction. Samples were stored at −80° C. until analysis.
(§2) Cell supernatant samples were analyzed by enzyme-linked immunosorbent assay (EIA) for PGE2 (Cayman #514010), TNF and IL1-β (RnD Systems, DuoSet #DY210 and #DY201) according to the manufacturers protocols. Cell supernatants were assayed at dilutions 1:1 for TNF; 1:10 for IL1-β and 1:100 for PGE2, except supernatants from untreated PBMC (negative control) that were assayed undiluted in all assays. Supernatants were hybridized over-night incubation, enzymatic conversion of substrate were read at OD420 nm. […]

[2] = tested on: LPS-induced IL-1b levels in PBMC; assay: LPS-induced IL-1β production in PBMC (ELISA); conditions: 1 μM MTX alone, 72 hours, 10 ng/mL LPS
Procedure: as §1, §2

[3] = tested on: HaCaT cells; assay: Resazurin assay, HaCaT keratinocyte proliferation and viability; conditions: Homo sapiens, 10 μM MTX alone, 24 hours of treatment, read-out: reduction of proliferation and viability of HaCaT cells
Procedure: The spontaneously immortalized, nontumorigenic skin keratinocyte cell line HaCaT was maintained in DMEM supplemented with 5% (v/v) FBS, 0.3 mg/ml glutamine and 0.1 mg/ml gentamicin at 37° C. with 5% CO2 in a humidified atmosphere. Subculture using trypsin-EDTA was performed every 3-4 days with split ratio of 1:3-1:4 to ensure actively proliferating cells. Cells were seeded in 96 well plates in fully supplemented medium at a density of 2500 cells per well. Following 72 hours of cultivation, the cells were starved of serum in 0.25% FBS/DMEM overnight to halt proliferation, synchronize and to increase cell sensitivity to treatment. On day 4, the cells were treated with cPLA2α inhibitor Compound A1 and folic acid analogue methotrexate hydrate (MTX) (Sigma Aldrich #A6770) and left to incubate for […] in incubator at 37° C. with 5% CO2 in a humidified atmosphere before fluorescence was read at 544 nm excitation and 590 nm emission wavelength. The cells were observed under the microscope to evaluate possible morphology changes and signs of stress before addition of resazurin. The experiments were performed in series of 8 wells per treatment and repeated 2-3 times.

Compound: CN(Cc1cnc2nc(N)nc(N)c2n1)c1ccc(C(=O)N[C@@H](CCC(=O)O)C(=O)O)cc1 [MTX, methotrexate hydrate]
- reduction of LPS-induced TNF levels [1]: ~20%
- reduction of LPS-induced IL-1b levels [2]: ~20%
- cytotoxicity at 10 µM [3]: ~15%
